Laboratory results published in ChEMBL document CHEMBL1201862, “PubChem BioAssay data set” (2004).
The source made the active and inactive calls.

What was measured:
[1] = test system: Streptococcus sp. 'group A'; assay: Streptococcus pyogenes SK(-)GAS viability under kanamycin – luminescence, BacTiterGlo, confirmation, counter-screen for streptokinase expression inhibitor project, dose response (AID 1900); assay type: functional, organism-based
Streptokinase A = molecular target: T1, Streptokinase A (Streptococcus pyogenes serotype M1, UniProt P10520); assay: viability-normalized secreted streptokinase activity reduction – plasminogen activation absorbance, OD405, dose response (AID 1914); assay type: functional, Streptococcus pyogenes M1 GAS;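 also: secreted streptokinase activity via plasminogen activation per viability signal from cell pellet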
T1 sequence (P10520 whole entry): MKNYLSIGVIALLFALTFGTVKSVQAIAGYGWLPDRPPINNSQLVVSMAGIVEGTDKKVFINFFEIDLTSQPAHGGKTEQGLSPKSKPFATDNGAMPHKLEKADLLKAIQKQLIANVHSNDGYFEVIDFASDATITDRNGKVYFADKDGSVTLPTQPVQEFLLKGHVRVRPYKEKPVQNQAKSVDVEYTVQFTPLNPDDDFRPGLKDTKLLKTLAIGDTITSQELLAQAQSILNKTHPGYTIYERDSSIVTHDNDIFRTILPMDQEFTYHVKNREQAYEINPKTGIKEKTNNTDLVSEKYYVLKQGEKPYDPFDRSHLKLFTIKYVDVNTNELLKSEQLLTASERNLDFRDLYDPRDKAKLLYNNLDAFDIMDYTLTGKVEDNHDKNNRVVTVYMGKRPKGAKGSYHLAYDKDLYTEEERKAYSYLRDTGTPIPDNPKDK

Streptococcus = assay: GAS UMAA2166 growth inhibition – luminescence, BacTiterGlo, counter-screen for streptokinase expression inhibitor project, dose response (AID 1915); assay type: functional, organism-based;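 also: potency for reduction of bacterial viability or growth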
BJ [2] = assay: growth inhibition of engineered Ras-driven BJ cells – cell-based, alamar blue fluorescence, cherrypicked samples, dose response (AID 2631); assay type: functional; conditions: Homo sapiens;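 also: confirmatory dose-response assay in RAS-dependent BJ fibroblasts engineered with TERT, LT and ST, with cytotoxicity read by fluorescence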
Fatty acid synthase [3] = molecular target: T2, Fatty acid synthase (Homo sapiens, UniProt P49327); assay: inhibition of human FAS-TE enzyme activity – biochemical, endpoint fluorescence intensity, uHTS hits, dose response (AID 624327); assay type: functional;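 also: fluorescence from hydrolysis of an O-methyl fluorescein acyl ester substrate by the enzyme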
T2 sequence (P49327 whole entry): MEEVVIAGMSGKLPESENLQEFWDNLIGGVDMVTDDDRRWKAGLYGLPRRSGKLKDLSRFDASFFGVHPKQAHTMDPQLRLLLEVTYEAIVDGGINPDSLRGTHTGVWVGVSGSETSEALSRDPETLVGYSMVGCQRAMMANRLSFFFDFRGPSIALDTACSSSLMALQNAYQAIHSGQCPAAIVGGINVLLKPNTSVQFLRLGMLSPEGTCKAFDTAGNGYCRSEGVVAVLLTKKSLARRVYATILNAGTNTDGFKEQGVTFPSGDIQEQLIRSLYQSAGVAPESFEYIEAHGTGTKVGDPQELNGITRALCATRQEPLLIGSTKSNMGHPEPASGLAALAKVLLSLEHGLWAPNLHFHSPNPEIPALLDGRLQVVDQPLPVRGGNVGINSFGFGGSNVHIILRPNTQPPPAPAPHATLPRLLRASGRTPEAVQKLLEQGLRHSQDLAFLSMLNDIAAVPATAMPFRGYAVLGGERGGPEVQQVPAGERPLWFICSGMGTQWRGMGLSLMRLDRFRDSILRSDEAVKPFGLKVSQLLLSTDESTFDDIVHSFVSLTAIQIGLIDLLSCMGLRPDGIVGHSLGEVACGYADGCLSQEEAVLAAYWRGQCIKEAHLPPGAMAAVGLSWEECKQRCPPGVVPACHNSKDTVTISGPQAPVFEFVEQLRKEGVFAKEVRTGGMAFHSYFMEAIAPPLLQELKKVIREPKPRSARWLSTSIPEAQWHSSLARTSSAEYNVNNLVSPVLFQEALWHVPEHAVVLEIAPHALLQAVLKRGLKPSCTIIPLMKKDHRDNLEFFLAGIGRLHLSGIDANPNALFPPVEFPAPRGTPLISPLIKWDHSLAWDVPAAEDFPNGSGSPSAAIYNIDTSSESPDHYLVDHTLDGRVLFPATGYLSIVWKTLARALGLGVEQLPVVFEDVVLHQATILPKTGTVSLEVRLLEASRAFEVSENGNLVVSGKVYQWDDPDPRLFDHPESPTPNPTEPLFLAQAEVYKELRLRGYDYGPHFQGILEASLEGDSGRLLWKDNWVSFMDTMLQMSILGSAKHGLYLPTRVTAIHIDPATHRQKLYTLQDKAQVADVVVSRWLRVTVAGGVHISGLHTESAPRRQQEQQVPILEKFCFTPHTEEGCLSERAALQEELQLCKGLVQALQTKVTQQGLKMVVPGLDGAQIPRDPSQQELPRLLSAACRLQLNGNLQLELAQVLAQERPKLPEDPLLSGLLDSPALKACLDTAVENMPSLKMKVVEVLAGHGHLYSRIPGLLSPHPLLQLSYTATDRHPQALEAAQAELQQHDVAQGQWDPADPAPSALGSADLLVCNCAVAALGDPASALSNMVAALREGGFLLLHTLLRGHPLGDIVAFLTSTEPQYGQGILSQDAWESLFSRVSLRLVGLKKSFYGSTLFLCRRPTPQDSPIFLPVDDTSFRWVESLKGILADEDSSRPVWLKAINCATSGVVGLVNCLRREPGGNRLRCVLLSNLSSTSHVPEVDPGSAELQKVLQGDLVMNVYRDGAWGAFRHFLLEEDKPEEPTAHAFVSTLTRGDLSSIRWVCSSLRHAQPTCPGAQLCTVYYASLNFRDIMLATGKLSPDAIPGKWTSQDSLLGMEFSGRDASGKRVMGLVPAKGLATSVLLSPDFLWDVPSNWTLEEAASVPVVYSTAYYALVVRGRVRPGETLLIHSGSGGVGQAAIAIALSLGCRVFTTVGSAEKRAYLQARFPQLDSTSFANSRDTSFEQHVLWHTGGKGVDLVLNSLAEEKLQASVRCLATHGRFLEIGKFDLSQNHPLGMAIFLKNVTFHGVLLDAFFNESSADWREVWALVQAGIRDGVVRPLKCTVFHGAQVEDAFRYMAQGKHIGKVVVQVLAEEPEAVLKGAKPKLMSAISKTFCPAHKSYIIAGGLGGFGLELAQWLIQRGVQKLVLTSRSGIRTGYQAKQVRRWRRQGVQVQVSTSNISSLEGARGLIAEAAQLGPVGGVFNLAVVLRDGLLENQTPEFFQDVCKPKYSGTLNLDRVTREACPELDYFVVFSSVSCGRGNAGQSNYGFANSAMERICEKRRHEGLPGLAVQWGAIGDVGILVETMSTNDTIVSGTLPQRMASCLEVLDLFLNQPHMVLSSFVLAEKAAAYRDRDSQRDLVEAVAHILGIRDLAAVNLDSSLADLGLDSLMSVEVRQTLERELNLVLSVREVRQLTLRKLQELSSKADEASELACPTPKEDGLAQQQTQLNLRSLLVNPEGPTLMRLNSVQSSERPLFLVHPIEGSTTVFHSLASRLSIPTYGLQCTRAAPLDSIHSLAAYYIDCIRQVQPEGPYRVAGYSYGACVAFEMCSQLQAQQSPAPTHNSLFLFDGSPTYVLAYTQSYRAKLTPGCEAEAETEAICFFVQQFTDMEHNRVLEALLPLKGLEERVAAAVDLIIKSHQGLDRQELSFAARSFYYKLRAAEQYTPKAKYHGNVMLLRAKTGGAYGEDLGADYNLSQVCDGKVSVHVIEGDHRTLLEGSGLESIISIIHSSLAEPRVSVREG

Fatty acid synthase [4] = molecular target: T2, Fatty acid synthase; assay: inhibition of human FAS-TE enzyme activity – biochemical, kinetic fluorescence intensity, dose response (AID 624326); assay type: functional;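 also: rate of fluorescence rise from hydrolysis of a fluorogenic O-methyl fluorescein ester substrate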
Caspase-3 = molecular target: T3, Caspase-3 (Homo sapiens, UniProt P42574); assay type: functional;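 also: Dose-response selectivity test against caspase-3 for candidate inhibitors of sentrin-specific proteases (SENPs)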
T3 sequence (P42574 whole entry): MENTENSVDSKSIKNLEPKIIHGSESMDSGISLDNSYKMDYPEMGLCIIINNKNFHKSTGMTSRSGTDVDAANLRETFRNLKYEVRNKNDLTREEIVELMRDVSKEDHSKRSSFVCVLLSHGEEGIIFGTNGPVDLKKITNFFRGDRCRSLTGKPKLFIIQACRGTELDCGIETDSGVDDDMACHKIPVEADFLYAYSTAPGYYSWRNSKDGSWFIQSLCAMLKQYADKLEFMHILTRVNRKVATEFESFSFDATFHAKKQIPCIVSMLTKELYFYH

[5] = molecular target: T4, Sentrin-specific protease 7 (Homo sapiens, UniProt Q9BQF6); assay type: functional;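 also: Luminescence-based dose-response confirmation of ultra-high-throughput screening hits, measuring inhibition of SENP7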
T4 sequence (Q9BQF6 whole entry): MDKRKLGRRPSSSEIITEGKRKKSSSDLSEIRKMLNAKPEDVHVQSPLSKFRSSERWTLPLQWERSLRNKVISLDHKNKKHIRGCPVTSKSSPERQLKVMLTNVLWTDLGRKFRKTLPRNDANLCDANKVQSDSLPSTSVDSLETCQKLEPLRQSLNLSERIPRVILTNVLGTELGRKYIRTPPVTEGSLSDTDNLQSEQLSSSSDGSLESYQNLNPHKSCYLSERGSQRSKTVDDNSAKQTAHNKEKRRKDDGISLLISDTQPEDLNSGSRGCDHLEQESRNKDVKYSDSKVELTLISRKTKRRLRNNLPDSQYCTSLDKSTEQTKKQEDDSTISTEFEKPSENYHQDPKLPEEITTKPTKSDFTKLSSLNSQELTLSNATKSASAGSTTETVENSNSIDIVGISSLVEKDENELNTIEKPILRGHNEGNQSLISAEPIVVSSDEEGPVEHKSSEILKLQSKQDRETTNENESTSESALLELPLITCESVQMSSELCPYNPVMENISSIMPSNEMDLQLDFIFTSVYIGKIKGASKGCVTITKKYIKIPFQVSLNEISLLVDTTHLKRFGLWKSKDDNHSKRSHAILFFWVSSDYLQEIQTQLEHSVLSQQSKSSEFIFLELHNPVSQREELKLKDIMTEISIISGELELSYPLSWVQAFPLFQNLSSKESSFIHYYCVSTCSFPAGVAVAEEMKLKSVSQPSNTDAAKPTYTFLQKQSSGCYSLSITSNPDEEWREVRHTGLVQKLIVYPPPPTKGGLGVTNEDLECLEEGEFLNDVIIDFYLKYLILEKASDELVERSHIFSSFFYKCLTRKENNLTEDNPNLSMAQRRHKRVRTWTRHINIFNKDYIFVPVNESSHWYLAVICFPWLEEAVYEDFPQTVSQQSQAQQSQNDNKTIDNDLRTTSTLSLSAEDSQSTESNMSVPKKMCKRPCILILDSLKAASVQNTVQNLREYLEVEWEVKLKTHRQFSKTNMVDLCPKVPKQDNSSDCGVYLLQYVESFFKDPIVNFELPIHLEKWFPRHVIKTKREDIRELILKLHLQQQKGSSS

[6] = molecular target: T5, Sentrin-specific protease 6 (Homo sapiens, UniProt Q9GZR1); assay type: functional;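 also: Luminescence-based dose-response confirmatory assay of SENP6 inhibition, following up an ultra-high-throughput screen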
T5 sequence (Q9GZR1 whole entry): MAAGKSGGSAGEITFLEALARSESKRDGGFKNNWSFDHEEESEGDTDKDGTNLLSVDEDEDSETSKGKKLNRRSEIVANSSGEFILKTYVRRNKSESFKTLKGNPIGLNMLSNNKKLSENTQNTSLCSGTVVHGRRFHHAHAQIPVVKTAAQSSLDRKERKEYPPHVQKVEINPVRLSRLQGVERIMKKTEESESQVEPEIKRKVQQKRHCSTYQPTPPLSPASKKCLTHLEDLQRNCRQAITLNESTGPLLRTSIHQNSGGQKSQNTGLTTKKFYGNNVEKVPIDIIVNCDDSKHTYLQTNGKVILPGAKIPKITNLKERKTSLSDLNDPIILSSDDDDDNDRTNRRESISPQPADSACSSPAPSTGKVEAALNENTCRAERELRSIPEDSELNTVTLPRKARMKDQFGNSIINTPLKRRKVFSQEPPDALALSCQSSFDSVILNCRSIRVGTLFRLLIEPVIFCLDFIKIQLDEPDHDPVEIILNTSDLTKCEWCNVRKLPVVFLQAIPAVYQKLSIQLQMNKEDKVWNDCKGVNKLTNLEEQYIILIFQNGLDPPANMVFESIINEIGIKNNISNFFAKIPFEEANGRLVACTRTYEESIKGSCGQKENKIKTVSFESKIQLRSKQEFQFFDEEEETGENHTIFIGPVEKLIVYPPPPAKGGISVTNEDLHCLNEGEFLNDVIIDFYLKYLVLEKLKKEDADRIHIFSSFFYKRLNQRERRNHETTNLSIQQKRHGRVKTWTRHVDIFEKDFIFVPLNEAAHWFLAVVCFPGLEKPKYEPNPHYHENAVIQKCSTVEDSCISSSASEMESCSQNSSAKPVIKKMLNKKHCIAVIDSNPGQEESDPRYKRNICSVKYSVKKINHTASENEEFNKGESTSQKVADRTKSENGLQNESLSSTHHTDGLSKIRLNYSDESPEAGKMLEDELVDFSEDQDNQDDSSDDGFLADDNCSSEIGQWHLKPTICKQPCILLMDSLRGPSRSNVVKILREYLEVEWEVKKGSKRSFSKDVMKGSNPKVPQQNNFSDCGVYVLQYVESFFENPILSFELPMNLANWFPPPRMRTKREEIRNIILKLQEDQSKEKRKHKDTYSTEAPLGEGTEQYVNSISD

[7] = molecular target: T6, Sentrin-specific protease 8 (Homo sapiens, UniProt Q96LD8); assay type: functional;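 also: luminescence read-out of SENP8 inhibition, dose-response confirmation following an ultra-high-throughput screen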
T6 sequence (Q96LD8 whole entry): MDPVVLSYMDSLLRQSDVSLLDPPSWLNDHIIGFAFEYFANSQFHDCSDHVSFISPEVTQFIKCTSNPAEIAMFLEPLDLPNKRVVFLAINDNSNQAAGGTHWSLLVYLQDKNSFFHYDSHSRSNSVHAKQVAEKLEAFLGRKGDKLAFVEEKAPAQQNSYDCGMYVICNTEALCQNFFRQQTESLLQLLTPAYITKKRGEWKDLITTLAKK

Prothrombin = Prothrombin (Homo sapiens, UniProt P00734); assay: Thrombin 1536 HTS Dose Response Confirmation. [Related pubchem assays: 1046 (Thrombin 1536 HTS; hits were confirmed in this assay)]; assay type: functional
BJ [8] = assay: BJ-TERT fibroblast viability loss – cell-based, RAS-independent, luminescence, dose response (AID 1933); assay type: functional; conditions: Homo sapiens
BJ [9] = assay: cells; assay type: functional, cell-based; conditions: Homo sapiens
BJ [10] = assay: BJ-TERT-LT-ST fibroblast viability loss – cell-based, RAS-independent, luminescence, dose response (AID 1935); assay type: functional; conditions: Homo sapiens;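 also: BJ fibroblasts immortalized with TERT plus LT and ST oncogenes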
[11] = DRD fibroblast viability loss – cell-based, non-viral oncogenic, luminescence, dose response (AID 1934); assay type: functional; conditions: Homo sapiens
Caspase-6 = molecular target: T7, Caspase-6 (Homo sapiens, UniProt P55212); assay: inhibition of CASP6 peptide cleavage – biochemical, VEID-R110 fluorescence, cherry-pick, dose response (AID 720632)
T7 sequence (P55212 whole entry): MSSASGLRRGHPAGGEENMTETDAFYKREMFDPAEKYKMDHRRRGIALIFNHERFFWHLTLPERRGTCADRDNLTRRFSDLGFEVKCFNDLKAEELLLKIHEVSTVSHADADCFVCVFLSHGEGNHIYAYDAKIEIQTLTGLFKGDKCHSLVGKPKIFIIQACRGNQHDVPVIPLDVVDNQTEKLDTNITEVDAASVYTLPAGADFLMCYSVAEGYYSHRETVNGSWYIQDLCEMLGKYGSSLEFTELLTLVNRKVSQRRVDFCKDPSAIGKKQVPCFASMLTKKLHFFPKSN

O=C(c1ccc2c3n(nc2c1)-c1ccccc1CO3)N1CCCCC1
EC50 [1]: 11.9 µM (active) | EC50 (Streptokinase A): > 150 µM (not active) | EC50 (Streptococcus): 30.6 µM (active) | EC50 (BJ [2]): > 133 µM (inactive)

Cc1ccc([N+](=O)[O-])cc1S(=O)(=O)Nc1ccc(-c2ccc(N3CCCC3)nn2)cc1
IC50 (Fatty acid synthase [3]): 13.7 µM (active) | IC50 (Fatty acid synthase [4]): 8.02 µM (active)

CCOC(=O)c1c(NC(=O)CSc2nnc(-c3ccccc3C)n2C)sc(C(C)=O)c1C
IC50 (Fatty acid synthase [3]): 9.71 µM (active) | IC50 (Fatty acid synthase [4]): 3.03 µM (active)

CCOC(=O)c1ccc(-c2ccc3c(c2)CCC3)nc1C
IC50 (Caspase-3): 22.8 µM (active) | IC50 [5]: 6.3 µM (active) | IC50 [6]: 26.3 µM (active) | IC50 [7]: 45.2 µM (active)

CCC(=O)n1nc(-c2ccco2)nc1SCc1ccccc1
IC50 (Prothrombin): 0.00342 µM (active)

COc1ccccc1NC(=O)CCS(=O)(=O)c1ccccc1
IC50 (Prothrombin): > 50 µM (not active)

O=C(CCCCCCCCCCC(=O)NCc1cccnc1)NCc1cccnc1
EC50 (BJ [8]): > 75 µM (not active) | EC50 (BJ [9]): 1.85 µM (inconclusive) | EC50 (BJ [10]): > 150 µM (inconclusive) | EC50 [11]: > 150 µM (not active) | EC50 (BJ [2]): > 133 µM (inactive)

CC(Sc1nnc(-c2cc3ccccc3o2)n1-c1ccccc1)C(=O)O (stereo not drawn)
IC50 (Prothrombin): > 50 µM (not active)

O=C(Nc1nnc(C(F)(F)F)s1)c1ccc(Br)s1
IC50 (Caspase-3): 18.8 µM (active) | IC50 [5]: 15.5 µM (active) | IC50 [6]: 22.6 µM (active) | IC50 [7]: 24.1 µM (active)

COc1cc(CNc2nc(C)c([N+](=O)[O-])c(C)c2C#N)cc(OC)c1OC
IC50 (Fatty acid synthase [3]): 61.3 µM (inactive) | IC50 (Fatty acid synthase [4]): 80 µM (inactive)

CC1CCc2c(sc3nc(CN4CCN(S(=O)(=O)c5ccccc5[N+](=O)[O-])CC4)nc(O)c23)C1 (stereo not drawn)
IC50 (Fatty acid synthase [3]): 4.32 µM (active) | IC50 (Fatty acid synthase [4]): 4.55 µM (active)

O=C(NNC(=O)C(c1ccccc1)c1ccccc1)c1cccs1
IC50 (Prothrombin): > 50 µM (not active)

CCC12CCCN3CCc4c(n(c5ccccc45)C(O)(C(=O)OC)C1)C32 (stereo not drawn)
AC50 (Caspase-6): 21.7 µM (active)

Cc1ccc(C(=O)Nc2ccc3c(c2)OCO3)cc1Cl
IC50 (Caspase-3): 13.4 µM (active) | IC50 [5]: 5.94 µM (active) | IC50 [6]: > 100 µM (inactive) | IC50 [7]: > 100 µM (inactive)

CC(C)(C)NC(=O)NC(=O)COC(=O)C1CCN(S(=O)(=O)c2cccs2)CC1
IC50 (Fatty acid synthase [3]): 12.8 µM (active) | IC50 (Fatty acid synthase [4]): 9.75 µM (active)

CCOc1ccc(/C=C2\CCc3ccccc3C2=O)cc1
IC50 (Caspase-3): 1.5 µM (active) | IC50 [5]: 1.22 µM (active) | IC50 [6]: 1.42 µM (active) | IC50 [7]: 1.88 µM (active)

Cc1ccccc1CN1[C@@H](C)[C@H](c2ccccc2)Oc2cccc(NCC(C)C)c2S1(=O)=O
AC50 (Caspase-6): 23.3 µM (active)

Cc1ccccc1S(=O)(=O)N1[C@@H]2CNC[C@H]1[C@@H]2c1ccc(-c2ccc(C#N)cc2)cc1
AC50 (Caspase-6): 30.9 µM (active)

O=C(CCC(=O)Nc1ccc(F)cc1)N/N=C/c1cc([N+](=O)[O-])ccc1O
IC50 (Fatty acid synthase [3]): 22.6 µM (inactive) | IC50 (Fatty acid synthase [4]): 15.1 µM (active)

CC(C)Oc1ccc2c(=O)c(-c3ccccc3)coc2c1 [IPRIFLAVONE]
IC50 (Caspase-3): 19.7 µM (active) | IC50 [5]: 5.35 µM (active) | IC50 [6]: 57.2 µM (active) | IC50 [7]: 94.8 µM (active)
